Test results as given in ChEMBL document CHEMBL5154862, “Structure-Based Discovery of MDM2/4 Dual Inhibitors that Exert Antitumor Activities against MDM4-Overexpressing Cancer Cells” (J Med Chem, 2022).
Calls of active or inactive are those of the source. No cut-off for these calls is given here.

Legend:
U2OS = assay: cells; conditions: Homo sapiens, 96 h
Homo sapiens = species on record: Homo sapiens; assay: Potency index, ratio of RG7388 Ki to test compound Ki for displacement of 5-FAM labeled PDI peptide from MDM4 C17S mutant (14 to 111 residues) (unknown origin) expressed in Escherichia coli BL21 (DE3) assessed as inhibition constant incubated for 1.5 hrs by fluorescence polarization competition assay
MCF7 [1] = assay: Upregulation of p21 protein expression in human MCF7 cells at 2.5 uM measured after 24 hrs by Western blot analysis; format: functional, cell-based
NCI-H460 [2] = assay: Upregulation of p21 protein expression in human NCI-H460 cells at 2.5 uM measured after 24 hrs by Western blot analysis; format: functional, cell-based
[3] = Cmax in ICR mouse at 15 mg/kg, po measured upto 24 hrs by LC-MS/MS analysis; format: ADME, organism-based; parameters: time < 24 hrs, dose 15 mg/kg, route po; conditions: in vivo
RKO [4] = assay: Antitumor activity against human RKO cells xenografted in BALB/c mouse assessed as tumor growth inhibition at 100 mg/kg, po bid administered via gavage for 21 consecutive days and measured on day 21 relative to control; format: functional; conditions: 504 h, time 21 day, read-out: TGI
MCF7 [5] = assay: Upregulation of MDM2 protein expression in human MCF7 cells at 2.5 uM measured after 24 hrs by Western blot analysis; format: functional, cell-based
RKO [6] = assay: Induction of apoptosis in human RKO cells assessed as late apoptotic cells at 12.5 uM measured after 48 hrs by Annexin V-FITC/PI staining based flow cytometry analysis (reference value: 0.82 %); format: functional
[7] = Displacement of 5-FAM labeled PDI peptide from MDM4 C17S mutant (14 to 111 residues) (unknown origin) expressed in Escherichia coli BL21 (DE3) assessed as inhibition constant incubated for 1.5 hrs by fluorescence polarization competition assay; parameters: species or system Homo sapiens
[8] = target: Cyclin-dependent kinase inhibitor 1 (Homo sapiens) (UniProt P38936); assay: Activation of p21 in human HCT-116 cells incubated for 24 hrs by Western blot analysis; format: cell-based; conditions: filed as activator, dose 0.078125-2.5 µM, DDE = dose-dependent effect
Cyclin-dependent kinase inhibitor 1 (Homo sapiens), sequence (P38936 whole entry): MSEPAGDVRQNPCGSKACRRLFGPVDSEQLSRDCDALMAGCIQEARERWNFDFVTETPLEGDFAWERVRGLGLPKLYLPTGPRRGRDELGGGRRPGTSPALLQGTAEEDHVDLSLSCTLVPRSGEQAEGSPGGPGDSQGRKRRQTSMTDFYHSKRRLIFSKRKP

RKO [9] = assay: Upregulation of p21 gene expression in human RKO cells incubated for 24 hrs by qPCR analysis; format: functional, cell-based; conditions: dose 0.3125-2.5 µM, DDE = dose-dependent effect
[10] = Oral bioavailability in ICR mouse at 15 mg/kg measured upto 24 hrs by LC-MS/MS analysis; format: ADME, organism-based; conditions: in vivo
HCT-116 = assay: Upregulation of p21 protein expression in human HCT-116 cells at 2.5 uM measured after 24 hrs by Western blot analysis; format: functional, cell-based
[11] = target: E3 ubiquitin-protein ligase Mdm2 (Homo sapiens, UniProt Q00987); assay: Displacement of 5-FAM labeled PDI peptide from MDM2 (1 to 118 residues) (unknown origin) expressed in Escherichia coli BL21 (DE3) assessed as inhibition constant incubated for 1.5 hrs by fluorescence polarization competition assay
E3 ubiquitin-protein ligase Mdm2, sequence (Q00987 whole entry, the tested form may be a part): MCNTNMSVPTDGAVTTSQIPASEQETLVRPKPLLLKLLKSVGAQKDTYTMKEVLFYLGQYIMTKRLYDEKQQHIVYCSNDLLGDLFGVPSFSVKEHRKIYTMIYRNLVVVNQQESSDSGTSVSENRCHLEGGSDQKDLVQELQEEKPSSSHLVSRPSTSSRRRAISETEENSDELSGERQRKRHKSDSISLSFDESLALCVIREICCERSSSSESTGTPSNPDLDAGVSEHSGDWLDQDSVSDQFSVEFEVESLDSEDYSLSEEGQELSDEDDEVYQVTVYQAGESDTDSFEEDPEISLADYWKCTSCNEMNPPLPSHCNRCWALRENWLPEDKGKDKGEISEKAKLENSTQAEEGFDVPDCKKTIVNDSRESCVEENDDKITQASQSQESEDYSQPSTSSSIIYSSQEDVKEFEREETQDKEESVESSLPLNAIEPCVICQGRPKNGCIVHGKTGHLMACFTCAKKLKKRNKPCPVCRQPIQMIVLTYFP

NCI-H460 [12] = assay: cells; conditions: Homo sapiens, NCI-H460, 96 h
[13] = Cytotoxicity against HEK293 cells assessed as cell growth inhibition incubated for 4 days by CCK-8 assay; format: toxicity, cell-based; conditions: human
MCF7 [14] = assay: Upregulation of p53 protein expression in human MCF7 cells at 2.5 uM measured after 24 hrs by Western blot analysis; format: functional, cell-based

## COc1cc(C(=O)O)ccc1NC(=O)[C@@H]1N[C@@H](CC(C)(C)C)[C@](CNCc2ccncc2)(c2ccc(Cl)cc2F)[C@H]1c1cccc(Cl)c1F
U2OS
  IC50: 370 nM
Homo sapiens
  Ratio Ki: 6
MCF7 [1]
  Activity: Active
NCI-H460 [2]
  Activity: Active
[3]
  Cmax: 1080 ng/mL
RKO [4]
  inhibition in vivo at 100 mg/kg: 18%
MCF7 [5]
  Activity: Active
RKO [6]
  Activity: 3.81%
[7]
  Ki: 643 nM
[8]
  Activity: Dde
RKO [9]
  Activity: Dde
[10]
  bioavailability: 13.5%
HCT-116
  Activity: Active
[11]
  Ki: 1.1 nM
NCI-H460 [12]
  IC50: 460 nM
[13]
  IC50 at 4 days: 6250 nM
MCF7 [14]
  Activity: Active
